Where two headings read alike, the source gives them in different places. Square brackets hold non-standard residues; d marks the D form. Peptide text beside a SMILES is read from it. Orn = NCCC[C@H](N)C(=O)O

Data set [1] relates to CQR P. falciparum Dd2. As to the kind of experiment: microbe, parasite or virus in culture. To be noted: for IC50: read-out: IC50, CQR P. falciparum Dd2; for Resistance Index IC50Dd2/IC503D7: first value of cell; for Resistance Index IC50Dd2/IC50D10: second value of cell. The format is cell-based, Plasmodium falciparum. The procedure:
(§1) The antimalarial assays were carried out according to the method of Nkhoma et al.. […] On the day of the assay, the parasitemia was determined following observation by light microscopy after Giemsa staining of a thin blood smear from the culture. The cultures at young trophozoite stage were diluted to 2% parasitemia and 2% hematocrit by addition of fresh RPMI medium and uninfected erythrocytes. This culture suspension was distributed in 96-well culture plates at 90 µL/well. […] Peptide solvent and medium (10 µL/well) was used as sterility control and in growth control and 10 μL 1.0 mM GS was used as positive control. Assays were carried out in at least three biological repeats each consisting of three technical repeats to ascertain reproducibility.
(§2) The culture suspension was frozen away at −20 °C until determination of the residual lactate dehydrogenase activity of the parasites by the Malstat assay, as adapted from Gomez et al..
(§3) For the Malstat assay, the plates were transferred to −80 °C for 1 h following overnight storage at −20 °C to ensure that all the suspensions in each well of the 96-well plate were frozen. The plates were then thawed at room temperature. The Malstat reagent consisted of 200 μL Triton X-100, 2 g L-lactic acid (substrate), 0.66 g Tris-HCl buffer and 0.011 g of 3-acetylpyridine adenine dinucleotide (APAD) (coenzyme for parasite lactate dehydrogenase) in 100 mL analytical quality water set to a pH of 9.0 [93]. […] A 15 µL aliquot of the thawed and properly mixed suspension from the assay plates was added to 100 µL of the Malstat reagent, followed by addition of 25 µL of the NBT/PES solution. The reaction mixtures were then incubated at room temperature in the dark for 30 min followed by spectrophotometric measurement of the absorbance of the reduced APAD at 620 nm using a Model 680 Microplate reader from BioRad.
(§4) The data obtained from spectrophotometric measurement of the plates following the lactate dehydrogenase (Malstat) assay were converted to percentage growth inhibition using the data analysis method described by Rautenbach et al.. The background was obtained from control wells in which the parasites were killed with 100 µM GS while total growth was from the wells that were not submitted to peptides. […] The percentage COS-1 cell death (CellTiter Blue™ assay) was similarly calculated from absorbance values.

Data set [2] concerns CQS P. falciparum 3D7. As to the kind of experiment: microbe, parasite or virus in culture. The format is cell-based, Plasmodium falciparum. The procedure:
as §1, §2, §3, §4

The subject of data set [3] is CQI P. falciparum D10. As to the kind of experiment: microbe, parasite or virus in culture. Type of data set: cell-based, Plasmodium falciparum. To be noted: for IC50: 48 h, Malstat, ± SEM. The procedure: The antimalarial assays were carried out according to the method of Nkhoma et al.. Once the cultures reached a parasitemia of 5–15%, they were synchronized four days prior to the day of the assay as described above which allowed the cultures to recover from the stress caused by the D-sorbitol. On the day of the assay, the parasitemia was determined following observation by light microscopy after Giemsa staining of a thin blood smear from the culture. The cultures at young trophozoite stage were diluted to 2% parasitemia and 2% hematocrit by addition of fresh RPMI medium and uninfected erythrocytes. This culture suspension was distributed in 96-well culture plates at 90 µL/well. The peptides and CQ diluted in culture medium lacking albumax II were added to the cultures in triplicate at 10 µL/well to give a total volume of 100 µL/well. Peptide solvent and medium (10 µL/well) was used as sterility control and in growth control and 10 μL 1.0 mM GS was used as positive control. Assays were carried out in at least three biological repeats each consisting of three technical repeats to ascertain reproducibility.
For the activity determination against parasites, plates were incubated at 37 °C for 48 h under an atmosphere of 3% CO2, 4% O2 and 93% N2. The culture suspension was frozen away at −20 °C until determination of the residual lactate dehydrogenase activity of the parasites by the Malstat assay, as adapted from Gomez et al..
For the Malstat assay, the plates were transferred to −80 °C for 1 h following overnight storage at −20 °C to ensure that all the suspensions in each well of the 96-well plate were frozen. The plates were then thawed at room temperature. The Malstat reagent consisted of 200 μL Triton X-100, 2 g L-lactic acid (substrate), 0.66 g Tris-HCl buffer and 0.011 g of 3-acetylpyridine adenine dinucleotide (APAD) (coenzyme for parasite lactate dehydrogenase) in 100 mL analytical quality water set to a pH of 9.0 [93]. The lactate dehydrogenase reaction was initiated by addition of a second solution, NBT/PES solution composed of 1.96 mM nitro blue tetrazolium (NBT) and 0.24 mM phenazine ethosulfate (PES) which was always protected from light. A 15 µL aliquot of the thawed and properly mixed suspension from the assay plates was added to 100 µL of the Malstat reagent, followed by addition of 25 µL of the NBT/PES solution. The reaction mixtures were then incubated at room temperature in the dark for 30 min followed by spectrophotometric measurement of the absorbance of the reduced APAD at 620 nm using a Model 680 Microplate reader from BioRad.
(§5) The data obtained from spectrophotometric measurement of the plates following the lactate dehydrogenase (Malstat) assay were converted to percentage growth inhibition using the data analysis method described by Rautenbach et al.. The background was obtained from control wells in which the parasites were killed with 100 µM GS while total growth was from the wells that were not submitted to peptides. The background for the hemolysis evaluation was from wells in which the uninfected erythrocytes were lysed using 100 µM GS while growth control was from the wells with uninfected erythrocytes that received no peptides. The percentage COS-1 cell death (CellTiter Blue™ assay) was similarly calculated from absorbance values. All the dose–response assay data were evaluated using GraphPad Prism 4.03 (GraphPad Software, San Diego, CA, USA) followed by non-linear regression and sigmoidal curves were fitted (having variable slope and a constant difference of 100 between the top and bottom plateau). Following calculation of the 50% P. falciparum inhibitory concentration (IC50), 50% hemolytic concentration (HC50) and 50% lethal concentration (LC50) for COS-1 cells.

Data set [4] in a line: Toxicity to COS-1 cells, CellTiter Blue viability. The format is cell-based. Particulars: 24 h, resazurin (CellTiter Blue), read-out: Toxicity LC50, COS Cells. The procedure:
COS-1 cells were cultured in DMEM containing 0.9 g/L glucose, 0.12% NaHCO3, 10% fetal calf serum and 1% penicillin–streptomycin at 37 °C and under an atmosphere of 5% CO2 [95]. Twenty hours before the assay, the cells were transferred to 96-well plates at a density of 1.5 × 10^4 cells/well. The peptides from the dilution series were added to each well and incubated for 24 h. The cell viability was measured by adding 20 μL/well resazurin reagent (CellTiter Blue™), followed by four hours incubation at room temperature in the dark and measurement of the absorbance at 560 nm and 600 nm in the BioRad microplate reader.
as §5
On the technique in general: Resazurin is reduced to fluorescent resorufin, in cell work by metabolically active cells.

For data set [5], the system named is human erythrocytes. Nature of the data set: Hemolytic activity. Type of data set: cell-based. Particulars: 2% hematocrit, 1 h at 37 °C, ± SEM. The procedure:
To determine the hemolytic activity of the peptides, the duplicate 96-well plates with samples added to 90 μL 2% hematocrit per well were incubated for one hour at 37 °C and centrifuged using a swing-out rotor at 200× g for 3 min. The supernatant was diluted 1:8 in analytical quality water in separate 96-well plates and after mixing, the absorbance of the suspension was determined at 405 nm.
as §5

`CCN(CC)CCCC(C)Nc1ccnc2cc(Cl)ccc12` (stereo not shown) [CQ, chloroquine]: the IC50 in data set [1] (Plasmodium falciparum, DD2, 48 h) was 0.277 ± 0.018 µM; in data set [2] (Plasmodium falciparum, 3D7, 48 h, read-out: IC50, CQS P. falciparum 3D7) it was 0.017 ± 0.005 µM; in data set [3] (Plasmodium falciparum, D10), 0.04 ± 0.003 µM. In addition, the “Resistance Index IC50Dd2/IC503D7” value in data set [1] stood at 16. Also, in data set [1], the “Resistance Index IC50Dd2/IC50D10” value worked out at 7.
As to `CC(C)C[C@@H]1NC(=O)[C@H](CCCN)NC(=O)[C@H](C(C)C)NC(=O)[C@@H]2CCCN2C(=O)[C@@H](Cc2ccccc2)NC(=O)[C@H](CC(C)C)NC(=O)[C@H](CCCN)NC(=O)[C@H](C(C)C)NC(=O)[C@@H]2CCCN2C(=O)[C@@H](Cc2ccccc2)NC1=O` [GS, gramicidin S, reference compound] (cyclo(V[Orn]L[dF]PV[Orn]L[dF]P)), the IC50 in data set [1] (48 h, Malstat, ± SEM) stood at 1.86 ± 0.16 µM; in data set [2] (CQS 3D7, 48 h) it was 1.45 ± 0.151 µM; in data set [3] it was 1.4 ± 0.086 µM. Further, the “Resistance Index IC50Dd2/IC503D7” value in data set [1] is on record as 1.3; 1.3. Besides, the “Resistance Index IC50Dd2/IC50D10” value in data set [1] is listed as 1.3; 1.3. The “Selectivity Index IC50D10/IC50 (COS cells)” value in data set [3] (second value of cell) is reported as 6. The CC50 in data set [4] came to 9 µM. Further, the “HC50, Erythrocytes” value in data set [5] was 6.2 ± 0.4 (9) μM.

In general, IC50 refers to the midpoint of a concentration-inhibition curve.

The record behind these values is PMC9219824, “Antiplasmodial Cyclodecapeptides from Tyrothricin Share a Target with Chloroquine” (Antibiotics, 2022).
